In paper doi:10.1101/2024.08.19.608619, “Discovery of potent SARS-CoV-2 nsp3 macrodomain inhibitors uncovers lack of translation to cellular antiviral response” (bioRxiv, 2024):
Several values for one entry are separate records, joined by “and”; a condition that tells them apart may be missing. Equal entries are not always repeated.

What was measured:
[1] = test system: SARS-CoV-2, isolate USA-WA1/2020; experiment: microbe, parasite or virus in culture; format: cell-based; settings: HeLa-ACE2 SARS-CoV-2 antiviral effect without P-gp inhibitor; for EC50: read-out: ec50; for EC90: read-out: ec90
KOR receptor = target: T1, KOR receptor (Homo sapiens, UniProt P41145); experiment: Eurofins CEREP panel, KOR; format: binding; settings: kappa (h) (KOP) (agonist radioligand); test compound concentration 10 uM
T1 construct: purchased Eurofins Cerep (SafetyScreen44), recognised from the panel format

[2] = In vitro human hepatocyte stability; format: in vitro ADME
Text: (§1) Supplement media-1.zip/Hepatocyte_Stability.csv, table | column: clint; t_half

[3] = In vitro rat hepatocyte stability; format: in vitro ADME
Text: as §1

A2A (h) = target: T2, A2A (h) (Homo sapiens, UniProt P29274); experiment: In vitro CEREP profiling, A2A (h) (agonist radioligand); format: binding; settings: test compound 10 uM
T2 construct: purchased Eurofins Cerep (SafetyScreen44), recognised from the panel format
Text: (§2) Supplement media-1.zip/Safety_Panel_Profile.csv, table | column: perc_inhibition

H1 (h) = target: T3, H1 (h) (Homo sapiens, UniProt P35367); experiment: In vitro CEREP profiling, H1 (h) (antagonist radioligand); format: binding; settings: test compound concentration 10 uM
T3 construct: purchased Eurofins Cerep (SafetyScreen44), recognised from the panel format
Text: as §2

COX2(h) = target: T4, COX2(h) (Homo sapiens, UniProt P35354); experiment: In vitro CEREP profiling, COX2(h); format: biochemical; settings: test compound concentration 10 uM; Enzyme and Cell-based assays
T4 construct: purchased Eurofins Cerep (SafetyScreen44), recognised from the panel format
T4 sequence (P35354 18-604): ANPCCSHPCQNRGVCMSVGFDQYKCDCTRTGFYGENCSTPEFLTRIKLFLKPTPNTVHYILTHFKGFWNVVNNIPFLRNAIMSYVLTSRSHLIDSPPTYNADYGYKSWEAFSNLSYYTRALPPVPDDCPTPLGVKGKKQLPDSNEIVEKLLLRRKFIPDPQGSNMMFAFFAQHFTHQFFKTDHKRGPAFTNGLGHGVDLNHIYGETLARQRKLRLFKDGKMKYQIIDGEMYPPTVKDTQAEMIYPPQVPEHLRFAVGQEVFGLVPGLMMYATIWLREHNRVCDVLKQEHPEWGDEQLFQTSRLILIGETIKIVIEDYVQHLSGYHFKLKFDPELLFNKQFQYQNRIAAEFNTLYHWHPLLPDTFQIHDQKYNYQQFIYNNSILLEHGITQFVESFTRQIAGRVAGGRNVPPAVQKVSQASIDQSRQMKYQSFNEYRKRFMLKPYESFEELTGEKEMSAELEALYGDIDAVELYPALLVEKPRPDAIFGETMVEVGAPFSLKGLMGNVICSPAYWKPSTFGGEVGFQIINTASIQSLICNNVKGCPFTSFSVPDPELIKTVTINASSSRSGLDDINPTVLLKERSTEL
Text: as §2

PDE3A (h) = target: T5, PDE3A (h) (Homo sapiens, UniProt Q14432); experiment: In vitro CEREP profiling, PDE3A (h); format: biochemical; settings: test compound concentration 10 uM; Enzyme and Cell-based assays
T5 construct: purchased Eurofins Cerep (SafetyScreen44), recognised from the panel format
Text: as §2

beta2 (h) = target: T6, beta2 (h) (Homo sapiens, UniProt P07550); experiment: In vitro CEREP profiling, beta2 (h) (antagonist radioligand); format: binding; settings: test compound 10 uM
T6 construct: purchased Eurofins Cerep (SafetyScreen44), recognised from the panel format
Text: as §2

BZD (central) = experiment: In vitro CEREP profiling, BZD (central) (agonist radioligand); format: binding; settings: test compound 10 uM
Text: as §2

CB2 (h) = target: T7, CB2 (h) (Homo sapiens, UniProt P34972); experiment: In vitro CEREP profiling, CB2 (h) (agonist radioligand); format: binding; settings: test compound 10 uM
T7 construct: purchased Eurofins Cerep (SafetyScreen44), recognised from the panel format
Text: as §2

V1a (h) = target: T8, V1a (h) (Homo sapiens, UniProt P37288); experiment: In vitro CEREP profiling, V1a (h) (agonist radioligand); format: binding; settings: test compound concentration 10 uM
T8 construct: purchased Eurofins Cerep (SafetyScreen44), recognised from the panel format
Text: as §2

CB1 (h) = target: T9, CB1 (h) (Homo sapiens, UniProt P21554); experiment: In vitro CEREP profiling, CB1 (h) (agonist radioligand); format: binding; settings: test compound 10 uM
T9 construct: purchased Eurofins Cerep (SafetyScreen44), recognised from the panel format
Text: as §2

mu (MOP) (h) = target: T10, mu (MOP) (h) (Homo sapiens, UniProt P35372); experiment: In vitro CEREP profiling, mu (MOP) (h) (agonist radioligand); format: binding; settings: test compound concentration 10 uM
T10 construct: purchased Eurofins Cerep (SafetyScreen44), recognised from the panel format
Text: as §2

HeLa-ACE2 cells = settings: HeLa-ACE2 cytotoxicity; for perc_max_measured: highest measured response of the dose series; for perc_min_measured: lowest measured response of the dose series
KV channel = experiment: In vitro CEREP profiling, KV channel (antagonist radioligand); format: binding; settings: test compound concentration 10 uM
Text: as §2

5-HT1B (h) = target: T11, 5-HT1B (h) (Homo sapiens, UniProt P28222); experiment: In vitro CEREP profiling, 5-HT1B (h) (antagonist radioligand); format: binding; settings: test compound concentration 10 uM
T11 construct: purchased Eurofins Cerep (SafetyScreen44), recognised from the panel format
Text: as §2

ETA (h) = target: T12, ETA (h) (Homo sapiens, UniProt P25101); experiment: In vitro CEREP profiling, ETA (h) (agonist radioligand); format: binding; settings: test compound 10 uM
T12 construct: purchased Eurofins Cerep (SafetyScreen44), recognised from the panel format
T12 sequence (P25101 21-427): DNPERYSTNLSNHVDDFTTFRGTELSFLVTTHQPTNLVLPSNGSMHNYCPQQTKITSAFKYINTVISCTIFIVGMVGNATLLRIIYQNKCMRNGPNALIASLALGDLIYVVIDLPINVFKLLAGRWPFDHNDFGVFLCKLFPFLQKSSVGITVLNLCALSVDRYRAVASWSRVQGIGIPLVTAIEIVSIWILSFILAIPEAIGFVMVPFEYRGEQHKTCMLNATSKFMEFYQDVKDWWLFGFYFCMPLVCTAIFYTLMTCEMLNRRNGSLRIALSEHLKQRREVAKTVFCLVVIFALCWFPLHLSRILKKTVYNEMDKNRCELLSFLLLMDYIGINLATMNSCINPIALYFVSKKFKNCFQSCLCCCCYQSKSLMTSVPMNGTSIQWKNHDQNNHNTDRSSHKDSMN
Text: as §2

in vitro = settings: human, hela-ace2 cells, 50.0
[4] = maximum measured response of dose series
[5] = minimum measured response of dose series

T1 sequence (P41145 whole entry): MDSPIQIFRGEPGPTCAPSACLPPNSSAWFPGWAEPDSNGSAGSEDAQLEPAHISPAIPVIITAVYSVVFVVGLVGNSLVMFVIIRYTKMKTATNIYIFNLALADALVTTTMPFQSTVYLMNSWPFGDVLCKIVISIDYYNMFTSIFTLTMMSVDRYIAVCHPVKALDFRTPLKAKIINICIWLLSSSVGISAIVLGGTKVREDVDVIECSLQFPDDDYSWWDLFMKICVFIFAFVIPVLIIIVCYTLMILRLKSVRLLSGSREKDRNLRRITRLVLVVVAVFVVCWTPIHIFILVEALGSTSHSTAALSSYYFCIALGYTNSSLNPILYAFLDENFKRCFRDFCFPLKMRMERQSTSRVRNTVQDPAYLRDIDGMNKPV
T8 sequence (P37288 whole entry): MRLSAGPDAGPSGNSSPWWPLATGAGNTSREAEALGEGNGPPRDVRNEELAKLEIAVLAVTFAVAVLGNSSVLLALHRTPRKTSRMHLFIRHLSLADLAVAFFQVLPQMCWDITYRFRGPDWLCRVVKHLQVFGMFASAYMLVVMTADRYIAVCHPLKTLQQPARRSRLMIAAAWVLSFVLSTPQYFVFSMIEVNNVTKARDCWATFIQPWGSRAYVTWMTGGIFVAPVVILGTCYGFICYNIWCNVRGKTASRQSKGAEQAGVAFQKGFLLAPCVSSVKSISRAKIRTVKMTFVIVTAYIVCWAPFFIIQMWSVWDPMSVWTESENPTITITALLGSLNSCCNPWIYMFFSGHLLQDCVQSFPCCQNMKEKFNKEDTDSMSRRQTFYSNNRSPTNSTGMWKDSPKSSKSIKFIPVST
T10 sequence (P35372 whole entry): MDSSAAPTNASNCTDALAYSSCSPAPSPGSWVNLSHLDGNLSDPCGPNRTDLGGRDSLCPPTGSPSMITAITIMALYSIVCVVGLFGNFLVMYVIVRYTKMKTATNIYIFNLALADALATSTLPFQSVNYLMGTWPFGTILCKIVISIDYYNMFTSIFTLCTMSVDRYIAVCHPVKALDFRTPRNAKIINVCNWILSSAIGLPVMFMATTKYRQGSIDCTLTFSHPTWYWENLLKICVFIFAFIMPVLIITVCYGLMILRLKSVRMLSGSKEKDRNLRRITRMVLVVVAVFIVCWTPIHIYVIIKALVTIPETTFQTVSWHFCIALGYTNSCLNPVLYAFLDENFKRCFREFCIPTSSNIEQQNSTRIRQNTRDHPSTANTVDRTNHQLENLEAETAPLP
T7 sequence (P34972 whole entry): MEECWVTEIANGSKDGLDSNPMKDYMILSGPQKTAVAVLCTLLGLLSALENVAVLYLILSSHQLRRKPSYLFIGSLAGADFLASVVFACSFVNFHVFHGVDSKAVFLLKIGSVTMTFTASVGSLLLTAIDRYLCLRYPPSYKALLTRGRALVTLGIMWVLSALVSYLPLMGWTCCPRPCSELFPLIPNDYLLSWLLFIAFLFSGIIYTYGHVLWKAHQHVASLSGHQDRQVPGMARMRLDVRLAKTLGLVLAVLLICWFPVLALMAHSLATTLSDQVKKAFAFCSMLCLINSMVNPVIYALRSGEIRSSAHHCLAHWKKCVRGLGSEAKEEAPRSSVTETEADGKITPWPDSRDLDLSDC
T3 sequence (P35367 whole entry): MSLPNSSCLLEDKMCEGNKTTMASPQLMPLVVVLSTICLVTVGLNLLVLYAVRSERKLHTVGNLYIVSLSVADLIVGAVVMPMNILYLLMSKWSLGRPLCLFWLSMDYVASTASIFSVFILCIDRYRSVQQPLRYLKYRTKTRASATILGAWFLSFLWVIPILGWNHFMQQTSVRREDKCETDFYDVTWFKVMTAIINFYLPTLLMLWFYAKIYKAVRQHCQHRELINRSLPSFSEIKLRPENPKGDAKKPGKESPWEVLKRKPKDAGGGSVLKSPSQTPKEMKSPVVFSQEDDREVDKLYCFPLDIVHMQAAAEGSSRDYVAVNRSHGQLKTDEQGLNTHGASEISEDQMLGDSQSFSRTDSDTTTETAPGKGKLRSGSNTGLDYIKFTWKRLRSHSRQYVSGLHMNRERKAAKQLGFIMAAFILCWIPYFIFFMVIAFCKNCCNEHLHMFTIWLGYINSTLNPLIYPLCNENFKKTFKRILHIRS
T2 sequence (P29274 whole entry): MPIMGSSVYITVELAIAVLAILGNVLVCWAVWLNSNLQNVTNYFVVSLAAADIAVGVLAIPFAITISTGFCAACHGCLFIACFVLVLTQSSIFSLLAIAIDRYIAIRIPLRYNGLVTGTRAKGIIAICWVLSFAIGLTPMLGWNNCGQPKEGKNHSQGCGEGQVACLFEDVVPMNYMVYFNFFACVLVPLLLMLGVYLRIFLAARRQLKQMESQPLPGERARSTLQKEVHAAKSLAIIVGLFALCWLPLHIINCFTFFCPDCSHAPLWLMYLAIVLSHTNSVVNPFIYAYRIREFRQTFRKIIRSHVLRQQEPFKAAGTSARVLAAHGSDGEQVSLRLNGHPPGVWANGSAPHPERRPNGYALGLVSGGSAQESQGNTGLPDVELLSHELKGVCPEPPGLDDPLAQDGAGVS
T6 sequence (P07550 whole entry): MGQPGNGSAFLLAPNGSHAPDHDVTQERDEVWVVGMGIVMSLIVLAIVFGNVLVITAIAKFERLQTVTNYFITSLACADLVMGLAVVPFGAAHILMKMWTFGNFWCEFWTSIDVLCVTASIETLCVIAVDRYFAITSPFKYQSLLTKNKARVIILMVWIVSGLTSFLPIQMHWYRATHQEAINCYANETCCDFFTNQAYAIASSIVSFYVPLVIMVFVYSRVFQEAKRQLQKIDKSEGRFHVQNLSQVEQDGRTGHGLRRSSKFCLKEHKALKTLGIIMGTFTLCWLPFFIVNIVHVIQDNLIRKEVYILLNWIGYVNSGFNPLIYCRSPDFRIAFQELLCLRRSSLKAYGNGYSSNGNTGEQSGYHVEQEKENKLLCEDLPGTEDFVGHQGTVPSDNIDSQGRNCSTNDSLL
T11 sequence (P28222 whole entry): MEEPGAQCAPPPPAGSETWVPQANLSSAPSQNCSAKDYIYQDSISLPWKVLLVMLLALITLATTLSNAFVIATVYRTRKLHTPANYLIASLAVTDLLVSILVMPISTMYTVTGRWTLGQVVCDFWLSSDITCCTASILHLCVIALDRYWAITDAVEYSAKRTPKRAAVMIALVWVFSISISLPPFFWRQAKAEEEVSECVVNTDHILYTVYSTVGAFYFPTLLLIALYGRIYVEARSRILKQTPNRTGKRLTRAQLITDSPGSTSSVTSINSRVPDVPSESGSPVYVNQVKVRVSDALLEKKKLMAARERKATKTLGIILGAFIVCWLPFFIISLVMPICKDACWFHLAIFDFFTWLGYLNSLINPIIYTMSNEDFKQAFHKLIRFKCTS
T5 sequence (Q14432 whole entry): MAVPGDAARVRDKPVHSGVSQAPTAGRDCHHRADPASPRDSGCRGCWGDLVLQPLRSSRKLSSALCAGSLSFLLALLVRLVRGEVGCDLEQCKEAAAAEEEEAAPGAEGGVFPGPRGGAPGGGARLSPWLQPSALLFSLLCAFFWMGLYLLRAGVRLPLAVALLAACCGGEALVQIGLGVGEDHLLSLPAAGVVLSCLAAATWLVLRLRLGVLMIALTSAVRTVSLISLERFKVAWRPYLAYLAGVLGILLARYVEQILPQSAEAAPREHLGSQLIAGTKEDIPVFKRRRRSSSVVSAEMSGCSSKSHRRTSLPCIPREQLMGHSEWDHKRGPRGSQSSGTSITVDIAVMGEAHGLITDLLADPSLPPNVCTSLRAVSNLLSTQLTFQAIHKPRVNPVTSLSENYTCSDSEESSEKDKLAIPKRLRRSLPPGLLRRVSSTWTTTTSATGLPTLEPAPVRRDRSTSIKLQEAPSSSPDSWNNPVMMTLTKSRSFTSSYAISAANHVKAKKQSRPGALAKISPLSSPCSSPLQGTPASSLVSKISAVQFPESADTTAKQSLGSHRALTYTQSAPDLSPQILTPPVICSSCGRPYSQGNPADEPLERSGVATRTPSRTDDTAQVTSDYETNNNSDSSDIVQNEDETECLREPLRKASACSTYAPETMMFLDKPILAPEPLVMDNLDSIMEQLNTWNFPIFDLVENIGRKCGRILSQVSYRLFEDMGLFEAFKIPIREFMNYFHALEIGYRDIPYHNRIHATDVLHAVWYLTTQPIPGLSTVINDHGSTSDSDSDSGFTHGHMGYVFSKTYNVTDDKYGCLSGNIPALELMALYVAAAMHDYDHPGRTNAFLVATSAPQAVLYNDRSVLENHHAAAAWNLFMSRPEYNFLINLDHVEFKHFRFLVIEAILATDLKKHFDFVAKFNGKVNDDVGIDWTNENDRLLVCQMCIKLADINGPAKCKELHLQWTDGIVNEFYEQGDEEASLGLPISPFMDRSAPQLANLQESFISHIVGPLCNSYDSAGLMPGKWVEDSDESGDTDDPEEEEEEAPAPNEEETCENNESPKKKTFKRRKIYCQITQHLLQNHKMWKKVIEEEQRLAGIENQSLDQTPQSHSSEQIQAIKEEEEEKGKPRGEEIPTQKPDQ
T9 sequence (P21554 whole entry): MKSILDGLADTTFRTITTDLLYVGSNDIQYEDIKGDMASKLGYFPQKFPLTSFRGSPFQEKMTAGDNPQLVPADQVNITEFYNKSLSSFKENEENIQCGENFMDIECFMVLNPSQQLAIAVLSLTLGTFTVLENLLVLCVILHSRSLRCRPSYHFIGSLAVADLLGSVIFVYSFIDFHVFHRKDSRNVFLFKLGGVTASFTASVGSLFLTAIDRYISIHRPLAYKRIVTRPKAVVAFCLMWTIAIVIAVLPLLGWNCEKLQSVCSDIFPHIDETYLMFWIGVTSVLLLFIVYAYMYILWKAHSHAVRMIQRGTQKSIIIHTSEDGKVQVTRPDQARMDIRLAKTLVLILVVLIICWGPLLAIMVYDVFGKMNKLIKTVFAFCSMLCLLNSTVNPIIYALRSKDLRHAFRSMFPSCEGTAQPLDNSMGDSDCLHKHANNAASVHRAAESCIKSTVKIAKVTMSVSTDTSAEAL

| SMILES | perc_max_measured ([1]; maximum measured response) [%] | perc_max_measured [1, 4] [%] | perc_min_measured ([1]; minimum measured response) [%] | perc_min_measured [1, 5] [%] | EC50 [1] | EC90 [1] [µM] | perc_inhibition (% inhibition of the binding of a ligand specific for each target) (KOR receptor) [%] | clint [2] [uL/min/1E6 cells] | t_half [2] [min] | clint [3] [uL/min/1E6 cells] | t_half [3] [min] | perc_inhibition (% inhibition of the binding of a ligand specific for each target) (A2A (h)) [%] | perc_inhibition (% inhibition of the binding of a ligand specific for each target) (H1 (h)) [%] | perc_inhibition: % inhibition of control enzyme activity, COX2(h) (COX2(h)) [%] | perc_inhibition: % inhibition of control enzyme activity, PDE3A (h) (PDE3A (h)) [%] | perc_inhibition (% inhibition of the binding of a ligand specific for each target) (beta2 (h)) [%] | perc_inhibition (% inhibition of the binding of a ligand specific for each target) (BZD (central)) [%] | perc_inhibition (% inhibition of the binding of a ligand specific for each target) (CB2 (h)) [%] | perc_inhibition (% inhibition of the binding of a ligand specific for each target) (V1a (h)) [%] | perc_inhibition (% inhibition of the binding of a ligand specific for each target) (CB1 (h)) [%] | also measured |
| --- | --- | --- | --- | --- | --- | --- | --- | --- | --- | --- | --- | --- | --- | --- | --- | --- | --- | --- | --- | --- | --- |
| Cn1ncc(-c2cc3c(N[C@@H](c4ccc5c(n4)OCCO5)C(C)(C)C)ncnc3[nH]2)c1C#N [ASAP-0011221] | 101.751 | 108.122 | 4.671 | 8.006 | 1.49 µM and 1.6 µM | > 20 | 33 | 171.0 | 4.04 | 185.0 | 3.76 | 52 | 7 | -9 | 37 | 4 | -5 | 31 | 57 | 33 | perc_inhibition (% inhibition of the binding of a ligand specific for each target) (mu (MOP) (h)): 28%; CC50 (HeLa-ACE2 cells): > 20 µM; cc10 (HeLa-ACE2 cells): > 10.0 µM and > 20.0 µM; perc_max_measured (HeLa-ACE2 cells): 97.859% and 124.489%; perc_min_measured (HeLa-ACE2 cells): 51.321% and 74.575%; perc_inhibition (% inhibition of the binding of a ligand specific for each target) (KV channel): 5%; perc_inhibition (% inhibition of the binding of a ligand specific for each target) (5-HT1B (h)): 18%; perc_inhibition (% inhibition of the binding of a ligand specific for each target) (ETA (h)): 9%; CC50 at 24 h (in vitro): > 20 µM |
| COc1ccc([C@H](Cc2nnn[nH]2)NC(=O)c2ncnc3[nH]ccc23)cc1 [ASAP-0015381] | 102.013 | 116.588 | 88.847 | 75.952 | > 20 µM | > 20 | 2 | < 3.0 | > 231.0 | < 3.0 | > 231.0 | -13 | -4 | -1 | 62 | -6 | 0 | -11 | 5 | -8 | perc_inhibition (% inhibition of the binding of a ligand specific for each target) (mu (MOP) (h)): -3%; CC50 (HeLa-ACE2 cells): > 20 µM; cc10 (HeLa-ACE2 cells): > 20.0 µM; perc_max_measured (HeLa-ACE2 cells): 115.218% and 123.48%; perc_min_measured (HeLa-ACE2 cells): 79.698% and 90.022%; perc_inhibition (% inhibition of the binding of a ligand specific for each target) (KV channel): -1%; perc_inhibition (% inhibition of the binding of a ligand specific for each target) (5-HT1B (h)): -14%; perc_inhibition (% inhibition of the binding of a ligand specific for each target) (ETA (h)): 2%; CC50 at 24 h (in vitro): > 20 µM |
